Results from patent US10722520B2, “Heterocyclic compounds and their use in preventing or treating bacterial infections” (MUTABILIS, priority 2016, dated 2020).
Counter-ions that a name gives are not always drawn. Like-named read-outs stand apart in the source and are kept apart here.

Key:
AmpC (P99) = AmpC (P99) (Enterobacter cloacae, UniProt P05364); assay: biochemical
P. aeruginosa CIP107051 = assay: MIC of compound alone, broth microdilution; format: cell-based; details: Pseudomonas aeruginosa; strain CIP107051; compound alone; read-out: MIC compounds of the invention alone
Summary of the method: (§1)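 Visual end point: lowest concentration that blocked growth. Conditions: cation-adjusted Mueller-Hinton broth, 5×10^5 cfu/mL final inoculum of log-phase bacteria, 16-20 h, 35° C, ambient atmosphere.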

E. coli 190317 = assay: MIC of compound alone, broth microdilution; format: cell-based; details: Escherichia coli; strain 190317; compound alone; read-out: MIC compounds of the invention alone
Summary of the method: as §1

E. cloacae P99 = assay: MIC of compound alone, broth microdilution; format: cell-based; details: Enterobacter cloacae; strain P99; compound alone; read-out: MIC compounds of the invention alone
Summary of the method: as §1

K. pneumoniae 6299 = assay: MIC of compound alone, broth microdilution; format: cell-based; details: Klebsiella pneumoniae; strain 6299; compound alone; read-out: MIC compounds of the invention alone
Summary of the method: as §1

K. pneumoniae BAA-1898 = assay: MIC of compound alone, broth microdilution; format: cell-based; details: Klebsiella pneumoniae, BAA1898; strain BAA-1898; compound alone; read-out: MIC compounds of the invention alone
Summary of the method: as §1

CMY-37 = CMY-37 (Citrobacter freundii, UniProt P05193); details: read-out: IC50 β-lactamase CMY-37
OXA-48 = OXA-48 (Klebsiella pneumoniae, UniProt Q6XEC0)
SHV-1 = SHV-1 (Klebsiella pneumoniae, UniProt P0AD64)
KPC-2 = KPC-2 (Klebsiella pneumoniae, UniProt Q9F663)
CTX-M-15 = CTX-M-15 (Escherichia coli, UniProt Q9EXV5)
OXA-1 = OXA-1 (Escherichia coli, UniProt P13661)
OXA-15 = OXA-15 (Pseudomonas aeruginosa, UniProt Q51574); assay: biochemical
TEM-1 = TEM-1 (Escherichia coli, UniProt P62593)
AmpC (PAE) = AmpC (PAE) (Pseudomonas aeruginosa, UniProt P24735); assay: biochemical
OXA-11 = OXA-11 (Pseudomonas aeruginosa, UniProt Q06778)
[1] = class (C), nitrocefin 200 μM, 30-min pre-incubation, enzyme 0.2 nM

| Structure (SMILES) | IC50 (AmpC (P99)) [nM] | MIC (P. aeruginosa CIP107051) [mg/L] | MIC (E. coli 190317) [mg/L] | MIC (E. cloacae P99) [mg/L] | MIC (K. pneumoniae 6299) [mg/L] | MIC (K. pneumoniae BAA-1898) [mg/L] | IC50 (CMY-37) [nM] | IC50 (OXA-48) [nM] | IC50 (SHV-1) [nM] | IC50 (KPC-2) [nM] | IC50 (CTX-M-15) [nM] | IC50 (OXA-1) [nM] | IC50 (OXA-15) [nM] | IC50 (TEM-1) [nM] | IC50 (AmpC (PAE)) [nM] | IC50 (OXA-11) [nM] | IC50 (CMY-37; [1]) [nM] |
| --- | --- | --- | --- | --- | --- | --- | --- | --- | --- | --- | --- | --- | --- | --- | --- | --- | --- |
| COc1cnn(C2=CC3CN(C2)C(=O)N3OS(=O)(=O)[O-])c1.[Na+] (stereo not drawn) [Example 9, sodium [7-oxo-3-(4-methoxypyrazol-1-yl)-1,6-diazabicyclo[3.2.1]oct-3-en-6-yl]sulfate] | 15 | > 32 | > 32 | > 32 | > 32 | > 32 | 9.3 | 7 | 1.9 | 22 | 0.5 | 410 | 55 | 0.41 | 29 | 310 | – |
| O=C(NCCN1CCOCC1)c1ccn(C2=CC3CN(C2)C(=O)N3OS(=O)(=O)O)n1 (stereo not drawn) [Example 72, [3-[3-(2-morpholinoethylcarbamoyl)pyrazol-1-yl]-7-oxo-1,6-diazabicyclo[3.2.1]oct-3-en-6-yl]hydrogen sulfate] | 43 | > 32 | > 32 | > 32 | > 32 | > 32 | – | 2.5 | 6.7 | 7 | 0.57 | 100 | 43 | 0.91 | 540 | 36 | 86 |
| NCCc1cnn(C2=CC3CN(C2)C(=O)N3OS(=O)(=O)O)c1 (stereo not drawn) [Example 41, [3-[4-(2-aminoethyl)pyrazol-1-yl]-7-oxo-1,6-diazabicyclo[3.2.1]oct-3-en-6-yl]hydrogen sulfate] | 36 | 32 | 2 | 4 | > 32 | > 32 | – | 8.9 | 4.5 | 57 | 0.91 | 750 | 40 | 0.58 | 88 | 180 | 21 |
| NCCONC(=O)c1cn(C2=CC3CN(C2)C(=O)N3OS(=O)(=O)O)nn1 (stereo not drawn) [Example 63, [3-[4-(2-aminoethoxycarbamoyl)triazol-1-yl]-7-oxo-1,6-diazabicyclo[3.2.1]oct-3-en-6-yl]hydrogen sulfate] | 19 | > 32 | 8 | 16 | > 32 | 32 | – | 0.97 | 6.9 | 4.7 | 0.53 | 52 | 41 | 0.86 | 530 | 110 | 55 |
| NS(=O)(=O)c1cnn(C2=CC3CN(C2)C(=O)N3OS(=O)(=O)[O-])c1.[Na+] (stereo not drawn) [Example 16, sodium [7-oxo-3-(4-sulfamoylpyrazol-1-yl)-1,6-diazabicyclo[3.2.1]oct-3-en-6-yl]sulfate] | 13 | > 32 | 8 | 32 | > 32 | 32 | 21 | 12 | 3.4 | 4.6 | 1.4 | 100 | 42 | 0.56 | 180 | 650 | – |
| CC(=O)c1cnn(C2=CC3CN(C2)C(=O)N3OS(=O)(=O)[O-])c1.[Na+] (stereo not drawn) [Example 40, sodium [3-(4-acetylpyrazol-1-yl)-7-oxo-1,6-diazabicyclo[3.2.1]oct-3-en-6-yl]sulfate] | 7.5 | > 32 | 32 | > 32 | > 32 | > 32 | 8.3 | 6.3 | 1.8 | 3.4 | 0.91 | 150 | 8.6 | 0.35 | 260 | 95 | – |
| O=C(Nc1nccs1)c1ccn(C2=CC3CN(C2)C(=O)N3OS(=O)(=O)[O-])n1.[Na+] (stereo not drawn) [Example 25, sodium [7-oxo-3-[3-(thiazol-2-ylcarbamoyl)pyrazol-1-yl]-1,6-diazabicyclo[3.2.1]oct-3-en-6-yl]sulfate] | 9.4 | > 32 | > 32 | > 32 | > 32 | > 32 | 9.2 | 1.7 | 1.2 | 2.5 | 0.43 | 37 | 12 | 0.29 | 130 | 4.2 | – |
| O=C(Nc1ccn(C2=CC3CN(C2)C(=O)N3OS(=O)(=O)[O-])n1)c1nccs1.[Na+] (stereo not drawn) [Example 34, sodium {7-oxo-3-[3-(thiazole-2-carbonylamino)pyrazol-1-yl]-1,6-diazabicyclo[3.2.1]oct-3-en-6-yl}sulfate] | 10 | > 32 | > 32 | > 32 | > 32 | > 32 | 6.2 | 9.4 | 3.1 | 8.5 | 0.92 | 130 | 34 | 1 | 56 | 13 | – |
| O=C(Nc1ncns1)c1ccn(C2=CC3CN(C2)C(=O)N3OS(=O)(=O)O)n1 (stereo not drawn) [Example 79, [7-oxo-3-[3-(1,2,4-thiadiazol-5-ylcarbamoyl)pyrazol-1-yl]-1,6-diazabicyclo[3.2.1]oct-3-en-6-yl]hydrogen sulfate] | 14 | > 32 | > 32 | > 32 | > 32 | > 32 | – | 4.7 | 0.98 | 4.4 | 0.46 | 65 | 46 | 0.36 | 95 | 19 | 8.6 |
| O=C(Nc1ccccn1)c1ccn(C2=CC3CN(C2)C(=O)N3OS(=O)(=O)[O-])n1.[Na+] (stereo not drawn) [Example 80, sodium [7-oxo-3-[3-(2-pyridylcarbamoyl)pyrazol-1-yl]-1,6-diazabicyclo[3.2.1]oct-3-en-6-yl]sulfate] | 7.9 | > 32 | > 32 | > 32 | > 32 | > 32 | 12 | 0.86 | 1.4 | 2.6 | 0.29 | 30 | 11 | 0.27 | 150 | 5.5 | – |
| NC(=O)c1cnn(C2=CC3CN(C2)C(=O)N3OS(=O)(=O)[O-])c1.[Na+] (stereo not drawn) [Example 7, sodium [3-(4-carbamoylpyrazol-1-yl)-7-oxo-1,6-diazabicyclo[3.2.1]oct-3-en-6-yl]sulfate] | 21 | > 32 | 16 | > 32 | > 32 | > 32 | 22 | 7.8 | 4.7 | 12 | 2.7 | 250 | 55 | 0.72 | 400 | 93 | – |
| O=C1N2CC(n3cc(N4CCNCC4)cn3)=CC(C2)N1OS(=O)(=O)O (stereo not drawn) [Example 42, 2,2,2-trifluoroacetate [7-oxo-3-(4-piperazin-4-ium-1-ylpyrazol-1-yl)-1,6-diazabicyclo[3.2.1]oct-3-en-6-yl]hydrogen sulfate] | 86 | > 32 | 4 | 16 | > 32 | > 32 | – | 9.1 | 1.5 | 76 | 0.47 | 1600 | 34 | 0.31 | 180 | 850 | 59 |
